Laboratory results from patent US7910741B2, “Nitrogen-containing heterocyclic derivatives and drugs containing the same as the active ingredient” (Ono Pharmaceutical Co., Ltd., priority 2003, dated 2011).
Counter-ions that a name gives are not always drawn.

Tests used:
human CCR5 [1] = target: T1, human CCR5 (Homo sapiens, UniProt P51681); test: Migration test of human CCR5 expressing cell (hCCR5-Ba/F3 cell) against RANTES; type: cell-based
T1 construct: expressed in transfected cells; host or cells: Ba/F3
Method: Migration test of human CCR5 expressing cell (hCCR5-Ba/F3 cell):
The isolation was carried out according to the method of the isolation of human CCR5 gene as described in the above Example 1.
Ba/F3 cells were statically cultured by using RMMI-1640 medium (Gibco BRL) containing antibiotics (Antibiotic-Antimycotic) (final concentration: penicillin G sodium (100 U/mL), streptomycin sulfate (100 μg/mL), amphotericin B (0.25 μg/mL)) (Gibco BRL), fetal bovine serum (FBS) (10%), 2-mercaptoethanol (55 μM) and mouse interleukin-3 (IL-3) (5 ng/mL) (Pepro Tech, Inc) in a carbon dioxide incubator (temperature: 37° C., CO2 concentration: 5%, humidity: 95%). […]
The human CCR5 expression level in the clone obtained by the method described in the above (1-C) was detected with FAC Sort (trade name, Becton, Dickinson) by detecting the cells with a fluorescence isothiocyanate (FITC)-labeled anti-human CCR5 antibody (BD Pharmingen) and analyzed. […]
Influence of a test compound on the migration ability of the human CCR5 expressing Ba/F3 cell against RANTES, MIP-1α or […] was examined. […] The cells on the microplate were suspended in 100 μl of a phosphate buffer (PBS), and 1/10 portion thereof was further diluted with 90 μl of PBS, moved on a white plate for fluorescence assay, and used as an assay sample for migrated cell numbers (final: 100 μl/well). […]

human CCR5 [2] = target: T1, human CCR5; test: Inhibition test on the binding of RANTES to CCR5 (RANTES-induced transient increase of Ca ion in CCR5/CHO cells); type: cell-based; details: inhibition of RANTES (10 nM)-induced Ca2+ transient increase; CCR5/CHO cell
Method: Inhibition test on the binding of RANTES to CCR5:
(1) Isolation of Human CCR5 Gene
Human placental cDNA was prepared using Marathon cDNA amplification kit (Clontech). PCR primers hCCR5Xbal-F1:
Using the human placental cDNA as the template and using Ex Taq (Takara), PCR reaction (2 minutes at 95° C.→(30 seconds at 95° C., 45 seconds at 60° C., 1 minute at 72° C.)×35 times) was carried out. The thus amplified PCR product was subjected to a 1% agarose gel electrophoresis, purified using QIAquick Gel Extraction Kit (QUIAGEN) and then digested with a restriction enzyme XbaI. The digested fragments were ligated to an expression vector pEF-BOS-bsr using DNA Ligation Kit Ver. 2 (Takara) and transformed into Escherichia coli DH5a. […]
The thus established human CCR5 stably over-expressing CHO cell (CCR5/CHO cell) was suspended in Ham's F-12 medium containing FBS (10%) and seeded at a density of […] into a 96 well plate. […] Transient increase in the intracellular Ca^2+ concentration induced by the human RANTES was measured using a Ca^2+ detector for 96 well use (Hamamatsu Photonics), and inhibition ratio (%) of the test compound was calculated by the following calculation formula. Inhibition ratio=(Ec−Ea)/Ec×100 • Ec: measured value of Ca^2+ transient increase by RANTES • Ea: measured value of Ca^2+ transient increase by RANTES when a test compound was added.

T1 sequence (P51681 whole entry): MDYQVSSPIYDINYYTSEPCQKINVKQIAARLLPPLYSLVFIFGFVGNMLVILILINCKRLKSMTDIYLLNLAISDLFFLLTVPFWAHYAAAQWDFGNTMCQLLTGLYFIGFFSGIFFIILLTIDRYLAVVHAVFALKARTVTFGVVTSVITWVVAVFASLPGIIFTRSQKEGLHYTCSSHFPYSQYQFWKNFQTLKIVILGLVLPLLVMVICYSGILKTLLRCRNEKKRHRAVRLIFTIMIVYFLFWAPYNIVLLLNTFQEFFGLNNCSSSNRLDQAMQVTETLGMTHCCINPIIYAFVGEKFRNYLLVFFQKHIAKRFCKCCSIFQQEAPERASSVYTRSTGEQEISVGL

SMILES | cell migration inhibition ratio (human CCR5 [1]; concentration 10 μM) | cell migration inhibition ratio (human CCR5 [1]; concentration 30 μM) | IC50 (human CCR5 [2])
CCCCN(C(=O)Nc1ccc(F)cc1F)C1CCN(Cc2ccc(Oc3ccc(NS(C)(=O)=O)cc3)cc2)CC1.Cl [Example 23(126), N-[4-(4-{[4-(butyl{[(2,4-difluorophenyl)amino]carbonyl}amino)-1-piperidinyl]methyl}phenoxy)phenyl]methanesulfonamide hydrochloride] | 42% | 77% | 
CCCCN(C(=O)C1CCCCC1)C1CCN(Cc2ccc(Oc3ccc(NS(C)(=O)=O)cc3)cc2)CC1 [Example 5(2), N-butyl-N-[1-(4-{4-[(methylsulfonyl)amino]phenoxy}benzyl)piperidin-4-yl]cyclohexanecarboxamide hydrochloride] |  |  | 77 nM
